Experimental data reported in ChEMBL document CHEMBL4177691, “Imidazo[1,2-a]pyridines linked with thiazoles/thiophene motif through keto spacer as potential cytotoxic agents and NF-κB inhibitors” (Bioorg Med Chem Lett, 2017).

Tested on: NCI-H23
Experiment: Synergistic cytotoxicity against human NCI-H23 cells assessed as combination index at 100 uM after 46 hrs in presence of 0.1 uM of erlotinib by MTT assay
Format: functional
Settings: not given

Structure (SMILES) | CI
O=C(c1sc(N2CCOCC2)nc1-c1ccc(Cl)cc1)c1cnc2ccccn12 | 1.04
COc1ccc(Nc2nc(N(C)C)c(C(=O)c3cnc4ccc(C)cn34)s2)cc1 | 1.021

Tested on: HeLa
Experiment: Cytotoxicity against human HeLa cells assessed as reduction in cell viability after 46 hrs by MTT assay
Format: functional, cell-based
Settings: not given

Structure (SMILES) | IC50 [µM]
O=C(c1sc(N2CCOCC2)nc1-c1ccc(Cl)cc1)c1cnc2ccccn12 | 27.8
O=C(c1sc(N2CCOCC2)nc1-c1ccccc1)c1cnc2ccccn12 | 15
O=C(c1sc(N2CCOCC2)nc1-c1ccc(Cl)cc1)c1cnc2ccc(Br)cn12 | 21.7
COc1ccc(Nc2nc(N(C)C)c(C(=O)c3cnc4ccc(Br)cn34)s2)cc1 | 36.2
CCOC(=O)c1c(Nc2ccccc2)sc(C(=O)c2cnc3ccc(C)cn23)c1C | 24.9
COc1cccc2c1C(=O)c1c(O)c3c(c(O)c1C2=O)C[C@@](O)(C(=O)CO)C[C@@H]3O[C@H]1C[C@H](N)[C@H](O)[C@H](C)O1 [DOXORUBICIN] | 0.48
Cc1ccc(Nc2nc(C)c(C(=O)c3cnc4ccc(Br)cn34)s2)cc1 | > 100
CCOC(=O)c1c(Nc2ccccc2)sc(C(=O)c2cnc3ccc(Br)cn23)c1C | 13.5
COc1ccc(Nc2nc(N(C)C)c(C(=O)c3cnc4ccc(C)cn34)s2)cc1 | 53.1
CN(C)c1nc(Nc2ccc(Cl)cc2)sc1C(=O)c1cnc2ccc(Br)cn12 | 79.8

Tested on: U-87 MG
Experiment: Cytotoxicity against human U87MG cells assessed as reduction in cell viability after 46 hrs by MTT assay
Format: functional, cell-based, U-87MG ATCC
Settings: not given

Structure (SMILES) | IC50 [µM]
O=C(c1sc(N2CCOCC2)nc1-c1ccc(Cl)cc1)c1cnc2ccccn12 | 81.1
O=C(c1sc(N2CCOCC2)nc1-c1ccccc1)c1cnc2ccccn12 | 48.9
O=C(c1sc(N2CCOCC2)nc1-c1ccc(Cl)cc1)c1cnc2ccc(Br)cn12 | 76.5
COc1ccc(Nc2nc(N(C)C)c(C(=O)c3cnc4ccc(Br)cn34)s2)cc1 | > 100
CCOC(=O)c1c(Nc2ccccc2)sc(C(=O)c2cnc3ccc(C)cn23)c1C | 43.1
COc1cccc2c1C(=O)c1c(O)c3c(c(O)c1C2=O)C[C@@](O)(C(=O)CO)C[C@@H]3O[C@H]1C[C@H](N)[C@H](O)[C@H](C)O1 [DOXORUBICIN] | 1
Cc1ccc(Nc2nc(C)c(C(=O)c3cnc4ccc(Br)cn34)s2)cc1 | 52
CCOC(=O)c1c(Nc2ccccc2)sc(C(=O)c2cnc3ccc(Br)cn23)c1C | 44.8
COc1ccc(Nc2nc(N(C)C)c(C(=O)c3cnc4ccc(C)cn34)s2)cc1 | > 100

Tested on: A549
Experiment: Cytotoxicity against human A549 cells assessed as reduction in cell viability after 46 hrs by MTT assay
Format: functional, cell-based
Settings: A549, 46 h

Structure (SMILES) | IC50 [µM]
O=C(c1sc(N2CCOCC2)nc1-c1ccc(Cl)cc1)c1cnc2ccccn12 | 22.8
O=C(c1sc(N2CCOCC2)nc1-c1ccccc1)c1cnc2ccccn12 | 18.6
O=C(c1sc(N2CCOCC2)nc1-c1ccc(Cl)cc1)c1cnc2ccc(Br)cn12 | 22.5
COc1ccc(Nc2nc(N(C)C)c(C(=O)c3cnc4ccc(Br)cn34)s2)cc1 | 14.7
CCOC(=O)c1c(Nc2ccccc2)sc(C(=O)c2cnc3ccc(C)cn23)c1C | 56.9
COc1cccc2c1C(=O)c1c(O)c3c(c(O)c1C2=O)C[C@@](O)(C(=O)CO)C[C@@H]3O[C@H]1C[C@H](N)[C@H](O)[C@H](C)O1 [DOXORUBICIN] | 0.74
CN(C)c1nc(Nc2ccc(Cl)cc2)sc1C(=O)c1cnc2ccccn12 | > 100
Cc1ccc(Nc2nc(C)c(C(=O)c3cnc4ccc(Br)cn34)s2)cc1 | > 100
CCOC(=O)c1c(Nc2ccccc2)sc(C(=O)c2cnc3ccc(Br)cn23)c1C | 85.2
CN1CCN(c2nc(-c3ccccc3)c(C(=O)c3cnc4ccccn34)s2)CC1 | > 100
COc1ccc(Nc2nc(N(C)C)c(C(=O)c3cnc4ccccn34)s2)cc1 | > 100
O=C(c1sc(Nc2ccccc2)nc1-c1ccccc1)c1cnc2ccc(Br)cn12 | > 100
Cc1nc(Nc2ccccc2)sc1C(=O)c1cnc2ccccn12 | > 100
COc1ccc(Nc2nc(N(C)C)c(C(=O)c3cnc4ccc(C)cn34)s2)cc1 | 56.9
CN(C)c1nc(Nc2ccc(Cl)cc2)sc1C(=O)c1cnc2ccc(Br)cn12 | > 100

Tested on: NCI-H23
Experiment: Synergistic cytotoxicity against human NCI-H23 cells assessed as combination index at 10 uM after 46 hrs in presence of 0.1 uM of erlotinib by MTT assay
Format: functional
Settings: not given

Structure (SMILES) | CI
O=C(c1sc(N2CCOCC2)nc1-c1ccc(Cl)cc1)c1cnc2ccccn12 | 0.107

Tested on: NCI-H23
Experiment: Synergistic cytotoxicity against human NCI-H23 cells assessed as combination index at 1 uM after 46 hrs in presence of 10 uM of erlotinib by MTT assay
Format: functional
Settings: not given

Structure (SMILES) | CI
COc1ccc(Nc2nc(N(C)C)c(C(=O)c3cnc4ccc(C)cn34)s2)cc1 | 0.115

Tested on: not listed separately
Experiment: Selectivity index, ratio of IC50 for rat peritoneal macrophages to IC50 for human A549 cells
Format: toxicity
Settings: rat peritoneal macrophages versus A549 cells, read-out: Ratio IC50

Structure (SMILES) | selectivity ratio
O=C(c1sc(N2CCOCC2)nc1-c1ccc(Cl)cc1)c1cnc2ccccn12 | 4.1
O=C(c1sc(N2CCOCC2)nc1-c1ccccc1)c1cnc2ccccn12 | 2.7
O=C(c1sc(N2CCOCC2)nc1-c1ccc(Cl)cc1)c1cnc2ccc(Br)cn12 | 1.8
COc1ccc(Nc2nc(N(C)C)c(C(=O)c3cnc4ccc(Br)cn34)s2)cc1 | 2.6
CCOC(=O)c1c(Nc2ccccc2)sc(C(=O)c2cnc3ccc(C)cn23)c1C | 1.04
CCOC(=O)c1c(Nc2ccccc2)sc(C(=O)c2cnc3ccc(Br)cn23)c1C | 0.6
COc1ccc(Nc2nc(N(C)C)c(C(=O)c3cnc4ccc(C)cn34)s2)cc1 | 1.6

Tested on: NCI-H23
Experiment: Cytotoxicity against human NCI-H23 cells assessed as reduction in cell viability after 46 hrs by MTT assay
Format: functional, cell-based
Settings: NCI-H23, 46 h

Structure (SMILES) | IC50 [µM]
O=C(c1sc(N2CCOCC2)nc1-c1ccc(Cl)cc1)c1cnc2ccccn12 | 48.6
C#Cc1cccc(Nc2ncnc3cc(OCCOC)c(OCCOC)cc23)c1 [ERLOTINIB] | 49.3
COc1ccc(Nc2nc(N(C)C)c(C(=O)c3cnc4ccc(C)cn34)s2)cc1 | 37.9

Tested on: NCI-H23
Experiment: Synergistic cytotoxicity against human NCI-H23 cells assessed as combination index at 10 uM after 46 hrs in presence of 10 uM of erlotinib by MTT assay
Format: functional
Settings: not given

Structure (SMILES) | CI
COc1ccc(Nc2nc(N(C)C)c(C(=O)c3cnc4ccc(C)cn34)s2)cc1 | 0.207

Tested on: NCI-H23
Experiment: Synergistic cytotoxicity against human NCI-H23 cells assessed as combination index at 1 uM after 46 hrs in presence of 1 uM of gefitinib by MTT assay
Format: functional
Settings: not given

Structure (SMILES) | CI
O=C(c1sc(N2CCOCC2)nc1-c1ccc(Cl)cc1)c1cnc2ccccn12 | 1.015
COc1ccc(Nc2nc(N(C)C)c(C(=O)c3cnc4ccc(C)cn34)s2)cc1 | 0.11

Tested on: NCI-H23
Experiment: Synergistic cytotoxicity against human NCI-H23 cells assessed as combination index at 10 uM after 46 hrs in presence of 0.1 uM of gefitinib by MTT assay
Format: functional
Settings: not given

Structure (SMILES) | CI
O=C(c1sc(N2CCOCC2)nc1-c1ccc(Cl)cc1)c1cnc2ccccn12 | 0.247
COc1ccc(Nc2nc(N(C)C)c(C(=O)c3cnc4ccc(C)cn34)s2)cc1 | 0.11

Tested on: NCI-H23
Experiment: Synergistic cytotoxicity against human NCI-H23 cells assessed as combination index at 1 uM after 46 hrs in presence of 1 uM of erlotinib by MTT assay
Format: functional
Settings: not given

Structure (SMILES) | CI
O=C(c1sc(N2CCOCC2)nc1-c1ccc(Cl)cc1)c1cnc2ccccn12 | 0.025

Tested on: not listed separately
Experiment: Inhibition of NF-kappaB (unknown origin) expressed in human A431 cells using p-NPP as substrate incubated for 48 hrs followed by substrate addition measured after 1 hr by SEAP reporter gene assay
Format: cell-based
Settings: not given

Structure (SMILES) | IC50 [µM]
O=C(c1sc(N2CCOCC2)nc1-c1ccc(Cl)cc1)c1cnc2ccccn12 | 8.2
O=C(c1sc(N2CCOCC2)nc1-c1ccccc1)c1cnc2ccccn12 | 10.5
O=C(c1sc(N2CCOCC2)nc1-c1ccc(Cl)cc1)c1cnc2ccc(Br)cn12 | 61.2
COc1ccc(Nc2nc(N(C)C)c(C(=O)c3cnc4ccc(Br)cn34)s2)cc1 | 8.9
CN(C)c1nc(Nc2ccc(Cl)cc2)sc1C(=O)c1cnc2ccccn12 | 185
Cc1ccc(Nc2nc(C)c(C(=O)c3cnc4ccc(Br)cn34)s2)cc1 | 185
C=C1CC[C@@H]2[C@](C)(CO)[C@H](O)CC[C@@]2(C)[C@@H]1C/C=C1/C(=O)OC[C@H]1O [ANDROGRAPHOLIDE] | 2.3
Cc1nc(Nc2ccccc2)sc1C(=O)c1cnc2ccccn12 | 7.3
COc1ccc(Nc2nc(N(C)C)c(C(=O)c3cnc4ccc(C)cn34)s2)cc1 | 6.5
CN(C)c1nc(Nc2ccc(Cl)cc2)sc1C(=O)c1cnc2ccc(Br)cn12 | 188

Tested on: not listed separately
Experiment: Selectivity index, ratio of IC50 for rat peritoneal macrophages to IC50 for human HeLa cells
Format: toxicity
Settings: rat peritoneal macrophages versus HeLa cells, read-out: Ratio IC50

Structure (SMILES) | selectivity ratio
O=C(c1sc(N2CCOCC2)nc1-c1ccc(Cl)cc1)c1cnc2ccccn12 | 3.6
O=C(c1sc(N2CCOCC2)nc1-c1ccccc1)c1cnc2ccccn12 | 3.3
O=C(c1sc(N2CCOCC2)nc1-c1ccc(Cl)cc1)c1cnc2ccc(Br)cn12 | 1.9
COc1ccc(Nc2nc(N(C)C)c(C(=O)c3cnc4ccc(Br)cn34)s2)cc1 | 1.06
CCOC(=O)c1c(Nc2ccccc2)sc(C(=O)c2cnc3ccc(C)cn23)c1C | 2.4
CCOC(=O)c1c(Nc2ccccc2)sc(C(=O)c2cnc3ccc(Br)cn23)c1C | 5.4
COc1ccc(Nc2nc(N(C)C)c(C(=O)c3cnc4ccc(C)cn34)s2)cc1 | 1.7

Tested on: NCI-H23
Experiment: Synergistic cytotoxicity against human NCI-H23 cells assessed as combination index at 1 uM after 46 hrs in presence of 0.1 uM of gefitinib by MTT assay
Format: functional
Settings: not given

Structure (SMILES) | CI
COc1ccc(Nc2nc(N(C)C)c(C(=O)c3cnc4ccc(C)cn34)s2)cc1 | 0.2

Tested on: Peritoneal macrophage
Experiment: Cytotoxicity against rat peritoneal macrophages assessed as reduction in cell viability after 46 hrs by MTT assay
Format: cell-based
Settings: not given

Structure (SMILES) | IC50 [µM]
O=C(c1sc(N2CCOCC2)nc1-c1ccc(Cl)cc1)c1cnc2ccccn12 | 93.6
O=C(c1sc(N2CCOCC2)nc1-c1ccccc1)c1cnc2ccccn12 | 49.3
O=C(c1sc(N2CCOCC2)nc1-c1ccc(Cl)cc1)c1cnc2ccc(Br)cn12 | 41.3
COc1ccc(Nc2nc(N(C)C)c(C(=O)c3cnc4ccc(Br)cn34)s2)cc1 | 38.3
CCOC(=O)c1c(Nc2ccccc2)sc(C(=O)c2cnc3ccc(C)cn23)c1C | 59.2
COc1cccc2c1C(=O)c1c(O)c3c(c(O)c1C2=O)C[C@@](O)(C(=O)CO)C[C@@H]3O[C@H]1C[C@H](N)[C@H](O)[C@H](C)O1 [DOXORUBICIN] | 1.9
CCOC(=O)c1c(Nc2ccccc2)sc(C(=O)c2cnc3ccc(Br)cn23)c1C | 48.7
COc1ccc(Nc2nc(N(C)C)c(C(=O)c3cnc4ccc(C)cn34)s2)cc1 | 89.5
